Source: patent US5075311A, “HMG-CoA reductase inhibiting substituted pryido (2,3-d) pyrimidines” (Bayer Aktiengesellschaft, priority 1989, dated 1991)

Tested on: HMG-CoA reductase (3-hydroxy-3-methyl-glutaryl-coenzyme A reductase)
Assay: HMG-CoA reductase enzyme activity determination (modified from G. C. Ness et al.), relative in vitro activity versus mevinolin
Format: biochemical, rat (male Rico rats, liver)
Details: from IC50 values, IC50 of reference mevinolin set at 1; 20 min preincubation at 37° C., 60 min incubation
Experimental: The enzyme activity determination was carried out as modified by G. C. Ness et al., Archives of Biochemistry and Biphysics 197, 493-499 [1979]. Male Rico rats (body weight 300-400 g) were treated for 11 days with altromin powdered feed to which 40 g of cholestyramine/kg of feed had been added. After description, the livers were removed from the animals and placed on ice. The livers were comminuted and homogenized 3 times in 3 volumes of 0.1 m sucrose, 0.05 m KCl, 0.04 m Kx Hy phosphate, 0.03 m ethylenediaminetetraacetic acid, 0.002 m dithiothreitol [SPE] buffer pH 7.2 in a Potter-Elvejem homogenizer. The mixture was then centrifuged at 15,000 g for 15 minutes and the sediment was discarded. […]
After incubating for 60 minutes at 37° C., the batch was centrifuged and 600 μl of the supernatant was applied to a 0.7×4 cm column packed with a 5-chloride 100-200 mesh (anion exchanger). The column was subsequently washed with 2 ml of distilled water and 3 ml of Aquasol were added to runnings plus washing water and counted in an LKB scintillation counter. IC50 values were determined by intrapolation by plotting the percentage inhibition against the concentration of the compound in the test. In order to determine the relative inhibitory potency, the IC50 value of the reference substance mevinolin was set at 1 and compared with the simultaneously determined IC50 value of the test compound.

| relative activity (mevinolin = 1) | Structure (SMILES) |
| --- | --- |
| 6 | COC(=O)C[C@H](O)C[C@H](O)/C=C/c1c(C(C)C)nc2c(c1-c1ccc(F)cc1)c(=O)[nH]c(=O)n2C (relative stereo) [Example 16, Methyl erythro-(E)-7-[5-(4-fluorophenyl)-7-isopropyl-1-methyl-2,4-dioxo-1,2,3,4-tetrahydro-pyrido(2,3-d)pyrimidin-6-yl]-3,5-dihydroxy-hept-6-enoate] |
| 2 | CCCCn1c(=O)[nH]c(=O)c2c(-c3ccc(F)cc3)c(/C=C/[C@@H](O)C[C@@H](O)CC(=O)OC)c(C(C)C)nc21 (relative stereo) [Example 8, Methyl erythro-(E)-7-[1-butyl-5-(4-fluorophenyl)-7-isopropyl-2,4-dioxo-1,2,3,4-terahydro-pyrido(2,3-d)pyrimidin-6-yl]-3,5-dihydroxy-hept-6-enoate] |
